Tested on: LXRα and/or LXRβ
Assay: LXR/LXRE co-transfection assay (luciferase reporter, CV-1 cells)
Assay type: cell-based, human
Details: IC50 or EC50 for LXR (LXRα and/or LXRβ, not distinguished), tested as described in Example 109, CV-1 cells
Excerpt: To measure the ability of compounds to activate or inhibit the transcriptional activity of LXR in a cell based assay, the co-transfection assay was used. It has been shown that LXR functions as a heterodimer with RXR. For the co-transfection assay; expression plasmids for LXR and RXR are introduced via transient transfection into mammalian cells along with a luciferase reporter plasmid that contains one copy of a DNA sequence that is bound by LXR-RXR heterodimers (LXRE; Willy, P. ad. 1995). Treatment of transfected cells with an LXR agonist increases the transcriptional activity of LXR, which is measured by an increase in luciferase activity.
CV-1 African Green Monkey Kidney Cells Co-transfection expression plasmids, comprising full-length LXRα (pCMX-h LXRα, LXRβ (pCMX-hLXRβ), or RXRα (pCMX-RXR), reporter plasmid (LXREx1-Tk-Luciferase), and control (pCMX-Galactosidase expression vector) (Willey et al. Genes & Development 91033-1045 (1995)). Transfection reagent such as FuGENE6 (Roche). 1× Cell lysis buffer (1% Triton X 100 (IT Baker X200-07), 10% Glycerol (JT Baker M778-07), 5 mM Ditriotreitol (Quantum Bioprobe DTT03; add fresh before lysing), 1 mM EGTA (Ethylene Glycol-bis(B-Amino ethyl ether)-N,N,N′,N′-Tetracetic Acid) (Sigma E-4378), 25 mM Tricine (ICN 807420) pH 7.8) 1× Luciferase assay buffer (pH at 7.8) (0.73 mM ATP, 22.3 mM Tricine, 0.11 mM EDTA, 33.3 mM DTT) 1× Luciferrin/CoA (11 mM Luciferin, 3.05 mM Coenzyme A, 10 mM HEPES) Preparation of Screening Reagents
CV-1 cells were prepared 24 hours prior to the experiment by plating them into T-175 flasks or 500 cm^2 dishes in order to achieve 70-80% confluency on the day of the transfection. The number of cells to be transfected was determined by the number of plates to be screened. each 384 well plate requires 1.92×10^6 cells or 5000 cells per well. DNA Transfection Reagent was prepared by mixing the required plasmid DNAs with a cationic lipid transfection reagent FuGENE6 (Roche) by following the instructions provided with the reagents. Optimal DNA amounts were determined empirically per cell line and size of vessel to be transfected. 10-12 mL of media was added to the DNA Transfection Reagent and this mixture was added to the cells after aspirating media from the T175 cm^2 flask. Cells were then incubated at least 5 hours at 37° C. to prepare screening cells.
Luciferase assay reagent was prepared by combining before use (per 10 mL): […], 0.54 mL of 1× Luciferrin/CoA; 0.54 mL of 0.2 M Magnesium sulfate
Assay plates were prepared by dispensing 5 μL of compound per well of a 384 well plate to achieve final compound concentration of 10 μM and no more than 1% DMSO. Media was removed from the screening cells, the cells trypsinized, harvested cells by centrifugation, counted, and plated at a density of approximately 5000 cells per well in the 384 well assay plate prepared above in a volume of about 45 μL. Assay plates containing both compounds and screening cells (50 μL in total volume) were incubated for 20 hours at 37° C.
After incubation with compounds, media was removed from the cells and lysis buffer (30 μL/well) added. After 30 minutes at ambient temperature, luciferase assay buffer (30 μL/well) was added and the assay plates read on a luminometer (PE Biosystems Northstar reader with on-board injectors, or equivalent). Plates were read immediately after addition of luciferase assay buffer.
The LXR/LXRE co-transfection assay can be used to establish the EC50/IC50 values for potency and percent activity or inhibition for efficacy. Efficacy defines the activity of a compound relative to a high control ((N-(3-((4-fluorophenyl)-(naphthalene-2-sulfonyl)amino)propyl)-2,2-dimethylpropionamide)) or a low control (DMSO/vehicle). The dose response curves are generated from an 8 point curve with concentrations differing by ½ LOG units. each point represents the average of 4 wells of data from a 384 well plate. […]

`CN1CCN(C(=O)c2cc(-c3ccc(-c4cccc(S(C)(=O)=O)c4)s3)n(-c3ccccc3Cl)n2)CC1` [Example 508, 1-{[1-(2-chlorophenyl)-5-{5-[3-(methylsulfonyl)phenyl]-2-thienyl}-1H-pyrazole-3-yl]carbonyl}-4-methylpiperazine] gave an EC50 of 1000 to 10000 nM.
`CN(Cc1ccsc1)Cc1cc(-c2ccc(-c3cccc(S(C)(=O)=O)c3)s2)n(-c2ccccc2Cl)n1` [Example 544, 1-[1-(2-chlorophenyl)-5-{5-[3-(methylsulfonyl)phenyl]-2-thienyl}-1H-pyrazol-3-yl]-N-methyl-N-(3-thienylmethyl)methanamine] showed an EC50 of 1000 to 10000 nM.
`CS(=O)(=O)c1cccc(-c2ccc(-c3cc(CNc4cc[nH]c(=S)n4)nn3-c3ccccc3Cl)s2)c1` [Example 545, 4-({[1-(2-chlorophenyl)-5-{5-[3-(methylsulfonyl)phenyl]-2-thienyl}-1H-pyrazol-3-yl]methyl}amino)pyrimidine-2(1H)-thione] was tested, and the EC50 was 1000 to 10000 nM.
`CN(Cc1ccncc1)Cc1cc(-c2ccc(-c3cccc(S(C)(=O)=O)c3)s2)n(-c2ccccc2Cl)n1` [Example 547, 1-[1-(2-chlorophenyl)-5-{5-[3-(methylsulfonyl)phenyl]-2-thienyl}-1H-pyrazol-3-yl]-N-methyl-N-(pyridin-4-ylmethyl)methanamine] was tested, and the EC50 was less than 1000 nM.
`CN(CC#N)Cc1cc(-c2ccc(-c3cccc(S(C)(=O)=O)c3)s2)n(-c2ccccc2Cl)n1` [Example 558, [{[1-(2-chlorophenyl)-5-{5-[3-(methylsulfonyl)phenyl]-2-thienyl}-1H-pyrazol-3-yl]methyl}(methyl)amino]acetonitrile] gave an EC50 of 1000 to 10000 nM.
For `Cc1n[nH]c(C)c1CN(C)Cc1cc(-c2ccc(-c3cccc(S(C)(=O)=O)c3)s2)n(-c2ccccc2Cl)n1` [Example 568, 1-[1-(2-chlorophenyl)-5-{5-[3-(methylsulfonyl)phenyl]-2-thienyl}-1H-pyrazol-3-yl]-N-[(3,5-dimethyl-1H-pyrazol-4-yl)methyl}-N-methylmethanamine], the EC50 was 1000 to 10000 nM.
Molecule `CCN(CC)CCN(CC)C(=O)c1cc(-c2ccc(-c3cccc(S(C)(=O)=O)c3)s2)n(-c2ccccc2Cl)n1` [Example 587, 1-(2-chlorophenyl)-N-[2-(diethylamino)ethyl]-N-ethyl-5-{5-[3-(methylsulfonyl)phenyl]-2-thienyl}-1H-pyrazole-3-carboxamide] has an EC50 of less than 1000 nM.
`CN(C)CCCN(C)C(=O)c1cc(-c2ccc(-c3cccc(S(C)(=O)=O)c3)s2)n(-c2ccccc2Cl)n1` [Example 588, 1-(2-chlorophenyl)-N-[3-(dimethylamino)propyl]-N-methyl-5-{5-[3-(methylsulfonyl)phenyl]-2-thienyl}-1H-pyrazole-3-carboxamide] gave an EC50 of less than 1000 nM.
In the case of `COC(=O)CN(C)C(=O)c1cc(-c2ccc(-c3cccc(S(C)(=O)=O)c3)s2)n(-c2ccccc2Cl)n1` [Example 589, methyl N-{[1-(2-chlorophenyl)-5-{5-[3-(methylsulfonyl)phenyl]-2-thienyl}-1H-pyrazol-3-yl]carbonyl}-N-methylglycinate], the EC50 is reported as less than 1000 nM.
`CS(=O)(=O)c1cccc(-c2ccc(-c3cc(C(=O)NCCN4CCOCC4)nn3-c3ccccc3Cl)s2)c1` [Example 590, 1-(2-chlorophenyl)-5-{5-[3-(methylsulfonyl)phenyl]-2-thienyl}-N-(2-morpholin-4-ylmethyl)-1H-pyrazole-3-carboxamide] was tested, and the EC50 was 1000 to 10000 nM.
Work on `CN(C)C1CCN(C(=O)c2cc(-c3ccc(-c4cccc(S(C)(=O)=O)c4)s3)n(-c3ccccc3Cl)n2)CC1` [Example 591, 1-{[1-(2-chlorophenyl)-5-{5-[3-(methylsulfonyl)phenyl]-2-thienyl}-1H-pyrazol-3-yl]carbonyl}-N,N-dimethylpiperidin-4-amine] yielded an EC50 of 1000 to 10000 nM.
With `CS(=O)(=O)c1cccc(-c2ccc(-c3cc(C(=O)N4CCC(C(=O)O)CC4)nn3-c3ccccc3Cl)s2)c1` [Example 592, 1-(1-(2-chlorophenyl)-5-(5-(3-(methylsulfonyl)phenyl)thiophen-2-yl)-1H-pyrazole-3-carbonyl)piperidine-4-carboxylic acid] the EC50 was 1000 to 10000 nM.

From patent US8703805B2 (Exelixis Patent Company LLC, priority 2005, dated 2014)
